According to patent US8575158B2, “1-phenyl-substituted heterocyclyl derivatives and their use as prostaglandin D2 receptor modulators” (Actelion Pharmaceuticals Ltd., priority 2010, dated 2013):

These compounds were tested against T1, hCRTH2 receptor (Homo sapiens, UniProt Q9Y5Y4) (assay: Radioligand displacement assay (3H-PGD2) on hCRTH2 receptor membranes). Details: antagonistic activity, 3H-PGD2 radioligand displacement, HEK293-hCRTH2 membranes.
T1 construct: expressed in transfected cells; host or cells: HEK293
T1 sequence (Q9Y5Y4 1-395): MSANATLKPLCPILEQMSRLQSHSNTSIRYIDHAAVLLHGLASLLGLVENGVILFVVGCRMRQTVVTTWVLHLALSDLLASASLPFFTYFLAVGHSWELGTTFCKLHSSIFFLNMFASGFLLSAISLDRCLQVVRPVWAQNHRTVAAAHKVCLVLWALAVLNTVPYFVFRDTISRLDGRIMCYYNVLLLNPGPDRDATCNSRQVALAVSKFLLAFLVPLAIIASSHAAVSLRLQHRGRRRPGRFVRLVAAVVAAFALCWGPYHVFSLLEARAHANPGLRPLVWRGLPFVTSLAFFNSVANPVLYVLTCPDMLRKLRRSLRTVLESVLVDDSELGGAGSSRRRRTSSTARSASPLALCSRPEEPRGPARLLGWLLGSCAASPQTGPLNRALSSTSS
Assay type: binding

Row | IC50 [µM] | Structure (SMILES)
1 | 0.00507 | Cc1cc(C)n(CCOC(=O)N2CCc3c(ccc(F)c3F)[C@H]2c2cc(Cl)ccc2OCC(=O)O)n1 [Example 316, (S)-1-(2-Carboxymethoxy-5-chloro-phenyl)-5,6-difluoro-3,4-dihydro-1H-isoquinoline-2-carboxylic acid 2-(3,5-dimethyl-pyrazol-1-yl)-ethyl ester]
2 | 0.00213 | Cc1cc(COC(=O)N2CCc3c(ccc(F)c3F)[C@H]2c2cc(Cl)ccc2OCC(=O)O)on1 [Example 305, (S)-1-(2-Carboxymethoxy-5-chloro-phenyl)-5,6-difluoro-3,4-dihydro-1H-isoquinoline-2-carboxylic acid 3-methyl-isoxazol-5-ylmethyl ester]
3 | 0.678 | O=C(O)COc1ccc(Cl)cc1[C@@H]1c2ccc(F)cc2CCN1C(=O)CCn1ncc2cccc(Cl)c21 [Example 400]
4 | 0.0057 | Cc1csc(COC(=O)N2CCc3c(ccc(F)c3F)[C@H]2c2cc(Cl)ccc2OCC(=O)O)n1 [Example 302, (S)-1-(2-Carboxymethoxy-5-chloro-phenyl)-5,6-difluoro-3,4-dihydro-1H-isoquinoline-2-carboxylic acid 4-methyl-thiazol-2-ylmethyl ester]
5 | 0.00489 | O=C(O)COc1ccc(Cl)cc1[C@@H]1c2ccc(F)cc2CCN1C(=O)OCc1ccccc1 [Example 367]
6 | 0.0704 | Cc1c(C)n(CCC(=O)N2CCc3ccccc3C2c2cc(Cl)ccc2OCC(=O)O)c2ccccc12 (racemic) [Example 389]
7 | 0.00453 | O=C(O)COc1ccc(Cl)cc1C1c2ccc(F)cc2CN1C(=O)CCn1ncc2ccccc21 (racemic) [Example 526, (±)-{4-Chloro-2-[5-fluoro-2-(3-indazol-1-yl-propionyl)-2,3-dihydro-1H-isoindol-1-yl]-phenoxy}-acetic acid]
8 | 0.0012 | O=C(O)COc1ccc(Cl)cc1[C@@H]1c2ccc(F)c(F)c2CCN1C(=O)OCc1noc2ccccc12 [Example 323, (S)-1-(2-Carboxymethoxy-5-chloro-phenyl)-5,6-difluoro-3,4-dihydro-1H-isoquinoline-2-carboxylic acid benzo[d]isoxazol-3-ylmethyl ester]
9 | 0.793 | O=C(O)COc1ccc(F)cc1C1c2cc(-c3ccc(F)cc3)ccc2CCN1C(=O)OCc1ccccc1 (racemic) [Example 497]
10 | 0.0124 | O=C(O)COc1ccc(Cl)cc1[C@@H]1c2ccc(F)cc2CCN1C(=O)OCc1nc2ccccc2o1 [Example 345, (S)-1-(2-Carboxymethoxy-5-chloro-phenyl)-6-fluoro-3,4-dihydro-1H-isoquinoline-2-carboxylic acid benzooxazol-2-ylmethyl ester]
11 | 0.0151 | O=C(O)COc1ccc(Cl)cc1C1c2ccccc2CCN1C(=O)NCc1ccccc1Cl (racemic) [Example 490]
12 | 0.00294 | CCn1nc(C)cc1CCOC(=O)N1CCc2ccccc2[C@H]1c1cc(Cl)ccc1OCC(=O)O [Example 289, (S)-1-(2-Carboxymethoxy-5-chloro-phenyl)-3,4-dihydro-1H-isoquinoline-2-carboxylic acid 2-(2-ethyl-5-methyl-2H-pyrazol-3-yl)-ethyl ester]
13 | 0.266 | Cc1nc2ccccc2n1CCOC(=O)N1CCc2cc(F)ccc2[C@H]1c1cc(Cl)ccc1OCC(=O)O [Example 343]
14 | 0.0405 | O=C(O)COc1ccc(Cl)cc1C1c2ccccc2CN1C(=O)C1CC1c1cccc(F)c1 (stereo not drawn) [Example 523, (4-Chloro-2-{2-trans-[2-(3-fluoro-phenyl)-cyclopropanecarbonyl]-2,3-dihydro-1H-isoindol-1-yl}-phenoxy)-acetic acid]

Same assay, conditions: antagonistic activity; 3H-PGD2 displacement on HEK293-hCRTH2 membrane fragments

Row | IC50 [µM] | Structure (SMILES)
15 | 0.0151 | O=C(O)COc1ccc(Cl)cc1C1c2ccccc2CCN1C(=O)OCc1cc(F)ccc1Cl (racemic) [Example 260]
16 | 0.166 | O=C(O)COc1ccc(Cl)cc1C1c2ccccc2CCN1C(=O)C1CC1c1ccccc1C(F)(F)F (single isomer, unassigned) [Example 155, (±)-(4-Chloro-2-{2-[(trans)-2-(2-trifluoromethyl-phenyl)-cyclopropanecarbonyl]-1,2,3,4-tetrahydro-iso-quinolin-1-yl}-phenoxy)-acetic acid (diatereoisomer 1)]
17 | 0.0345 | COc1cccc(CCCC(=O)N2CCc3ccccc3C2c2cc(Cl)ccc2OCC(=O)O)c1 (racemic) [Example 114, (±)-(4-Chloro-2-{2-[4-(3-methoxy-phenyl)-butyryl]-1,2,3,4-tetrahydro-isoquinolin-1-yl}-phenoxy)-acetic acid]
18 | 0.0208 | O=C(O)COc1ccc(F)cc1C1c2cccc(Cl)c2CCN1C(=O)OCc1ccccc1 (racemic) [Example 38, (±)-1-(2-Carboxymethoxy-5-fluoro-phenyl)-5-chloro-3,4-dihydro-1H-isoquinoline-2-carboxylic acid benzyl ester]
19 | 0.0245 | CCCCOC(=O)N1CCc2ccccc2C1c1cc(Cl)ccc1OCC(=O)O (racemic) [Example 266]
20 | 0.0395 | C[C@@H](Oc1ccc(F)cc1C1c2ccccc2CCN1C(=O)OCc1ccccc1)C(=O)O (stereo partly drawn) [Example 8, 1-[2-((R)-1-Carboxy-ethoxy)-5-fluoro-phenyl]-3,4-dihydro-1H-isoquinoline-2-carboxylic acid benzyl ester]
21 | 0.0169 | O=C(O)COc1ccc(Cl)cc1C1c2ccccc2CCN1C(=O)CCCc1cccc(Cl)c1Cl (racemic) [Example 109, (±)-(4-Chloro-2-{2-[4-(2,3-dichloro-phenyl)-butyryl]-1,2,3,4-tetrahydro-isoquinolin-1-yl}-phenoxy)-acetic acid]
22 | 0.119 | Cc1ccccc1OCC(=O)N1CCc2ccccc2C1c1cc(F)ccc1OCC(=O)O (racemic) [Example 136, (±)-{4-Fluoro-2-[2-(2-o-tolyloxy-acetyl)-1,2,3,4-tetrahydro-isoquinolin-1-yl]-phenoxy}-acetic acid]
23 | 0.233 | O=C(O)COc1ccc(F)cc1C1c2ccccc2CCN1C(=O)CCc1ccccc1F (racemic) [Example 139, (±)-(4-Fluoro-2-{2-[3-(2-fluoro-phenyl)-propionyl]-1,2,3,4-tetrahydro-isoquinolin-1-yl}-phenoxy)-acetic acid]
24 | 0.395 | O=C(O)COc1ccc(F)cc1C1c2ccccc2CCN1C(=O)CCCCc1ccccc1 (racemic) [Example 143, (±)-{4-Fluoro-2-[2-(5-phenyl-pentanoyl)-1,2,3,4-tetrahydro-isoquinolin-1-yl]-phenoxy}-acetic acid]
25 | 0.00772 | O=C(O)COc1ccc(F)cc1[C@@H]1c2ccccc2CCN1C(=O)[C@@H]1C[C@H]1c1ccccc1 (single isomer, unassigned) [Example 29]
26 | 0.0171 | O=C(O)COc1ccc(Cl)cc1C1c2ccccc2CCN1C(=O)OCc1ccc(Cl)cc1 (racemic) [Example 272]
27 | 0.261 | CN(CC(=O)N1CCc2ccccc2C1c1cc(F)ccc1OCC(=O)O)S(=O)(=O)c1cccc(F)c1 (racemic) [Example 211]
28 | 0.0837 | COc1ccc(OCC(=O)O)c(C2c3ccccc3CCN2C(=O)OCc2ccccc2)c1 (racemic) [Example 24, (±)-1-(2-Carboxymethoxy-5-methoxy-phenyl)-3,4-dihydro-1H-isoquinoline-2-carboxylic acid benzyl ester]
29 | 0.019 | COc1ccccc1COCC(=O)N1CCc2ccccc2C1c1cc(F)ccc1OCC(=O)O (racemic) [Example 198, (±)-(4-Fluoro-2-{2-[2-(2-methoxy-benzyloxy)-acetyl]-1,2,3,4-tetrahydro-isoquinolin-1-yl}-phenoxy)-acetic acid]
